{
  "source": "patent EP4755888A1",
  "about": "(ILAb Co., Ltd., priority 2023, dated 2025)",
  "note": "pIC50: −log10 of the molar value.",
  "data": [
    {"molecular_target": "PD-1/PD-L1 (Homo sapiens, UniProt Q9NZQ7)", "sequence (Q9NZQ7 19-238 limits assumed)": "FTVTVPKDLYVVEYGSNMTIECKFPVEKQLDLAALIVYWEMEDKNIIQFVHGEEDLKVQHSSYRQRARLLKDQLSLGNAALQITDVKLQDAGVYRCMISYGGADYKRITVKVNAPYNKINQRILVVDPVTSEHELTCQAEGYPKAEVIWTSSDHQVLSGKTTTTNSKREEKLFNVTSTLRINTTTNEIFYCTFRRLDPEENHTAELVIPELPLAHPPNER", "assay": "TR-FRET PD-1/PD-L1 binding inhibition at the molecular level (free proteins)", "conditions": "Tag1-PD-L1 and Tag2-PD-1 proteins, twelve concentrations from 200 nM, 2 hours at room temperature, read-out: FRET assay (IC50)", "outline": "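HTRF read-out at 665/620 nm after 2 h at room temperature. Detection used anti-Tag1 Eu cryptate plus anti-Tag2 XL665 antibodies. Tagged PD-L1 and PD-1 proteins were pre-mixed with compound across twelve […] 1:2 dilutions starting at 200 nM.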", "values": [
      {"smiles": "CC(=O)NCCNC1CCCn2nc(C(=O)Nc3cccc(-c4cccc(Nc5nc(C(F)F)nc6cc(CN7CC[C@@H](O)C7)cnc56)c4C)c3C)cc21", "note": "(stereo partly drawn) [Compound 130, 4-((2-acetamidoethyl)amino)-N-(3'-((2-(difluoromethyl)-7-(((R)-3-hydroxypyrrolidin-1-yl)methyl)pyrido[3,2-d]pyrimidin-4-yl)amino)-2,2'-dimethyl-[1,1'-biphenyl]-3-yl)-4,5,6,7-tetrahydropyrazolo[1,5-a]pyridine-2-carboxamide]", "pIC50": "7.00 to 8.00"},
      {"smiles": "Cc1c(NC(=O)c2cc3n(n2)CCCC3N2CC[C@@H](O)C2)cccc1-c1cccc(Nc2nc(C(F)F)nc3cc(CN4CC[C@@H](O)C4)cnc23)c1C", "note": "(stereo partly drawn) [Compound 131, N-(3'-((2-(difluoromethyl)-7-(((R)-3-hydroxypyrrolidin-1-yl)methyl)pyrido[3,2-d]pyrimidin-4-yl)amino)-2,2'-dimethyl-[1,1'-biphenyl]-3-yl)-4-((R)-3-hydroxypyrrolidin-1-yl)-4,5,6,7-tetrahydropyrazolo[1,5-a]pyridine-2-carboxamide]", "pIC50": "> 8.00"},
      {"smiles": "Cc1c(NC(=O)c2cc3n(n2)CCCC3NCCO)cccc1-c1cccc(Nc2nc(C(F)F)nc3cc(CN4CC[C@@H](O)C4)cnc23)c1C", "note": "(stereo partly drawn) [Compound 132, N-(3'-((2-(difluoromethyl)-7-(((R)-3-hydroxypyrrolidin-1-yl)methyl)pyrido[3,2-d]pyrimidin-4-yl)amino)-2,2'-dimethyl-[1,1'-biphenyl]-3-yl)-4-((2-hydroxyethyl)amino)-4,5,6,7-tetrahydropyrazolo[1,5-a]pyridine-2-carboxamide]", "pIC50": "> 8.00"},
      {"smiles": "Cc1c(NC(=O)c2cc3n(n2)CCCC3N2CC[C@@H](C(=O)O)C2)cccc1-c1cccc(Nc2nc(C(F)F)nc3cc(CN4CC[C@@H](O)C4)cnc23)c1C", "note": "(stereo partly drawn) [Compound 133, (3R)-1-(2-((3'-((2-(difluoromethyl)-7-(((R)-3-hydroxypyrrolidin-1-yl)methyl)pyrido[3,2-d]pyrimidin-4-yl)amino)-2,2'-dimethyl-[1,1'-biphenyl]-3-yl)carbamoyl)-4,5,6,7-tetrahydropyrazolo[1,5-a]pyridin-4-yl)pyrrolidine-3-carboxylic acid]", "pIC50": "> 8.00"},
      {"smiles": "Cc1c(NC(=O)c2cc3n(n2)CCCC3NCC(=O)O)cccc1-c1cccc(Nc2nc(C(F)F)nc3cc(CN4CC[C@@H](O)C4)cnc23)c1C", "note": "(stereo partly drawn) [Compound 134, 2-((2-((3'-((2-(difluoromethyl)-7-(((R)-3-hydroxypyrrolidin-1-yl)methyl)pyrido[3,2-d]pyrimidin-4-yl)amino)-2,2'-dimethyl-[1,1'-biphenyl]-3-yl)carbamoyl)-4,5,6,7-tetrahydropyrazolo[1,5-a]pyridin-4-yl)amino)acetic acid]", "pIC50": "7.00 to 8.00"},
      {"smiles": "Cc1c(NC(=O)c2cc3n(n2)CCCC3N2CCC(O)CC2)cccc1-c1cccc(Nc2nc(C(F)F)nc3cc(CN4CC[C@@H](O)C4)cnc23)c1C", "note": "(stereo partly drawn) [Compound 135, N-(3'-((2-(difluoromethyl)-7-(((R)-3-hydroxypyrrolidin-1-yl)methyl)pyrido[3,2-d]pyrimidin-4-yl)amino)-2,2'-dimethyl-[1,1'-biphenyl]-3-yl)-4-(4-hydroxypiperidin-1-yl)-4,5,6,7-tetrahydropyrazolo[1,5-a]pyridine-2-carboxamide]", "pIC50": "7.00 to 8.00"},
      {"smiles": "Cc1c(NC(=O)c2cc3n(n2)CCCC3N2CCC(C(=O)O)CC2)cccc1-c1cccc(Nc2nc(C(F)F)nc3cc(CN4CC[C@@H](O)C4)cnc23)c1C", "note": "(stereo partly drawn) [Compound 136, 1-(2-((3'-((2-(difluoromethyl)-7-(((R)-3-hydroxypyrrolidin-1-yl)methyl)pyrido[3,2-d]pyrimidin-4-yl)amino)-2,2'-dimethyl-[1,1'-biphenyl]-3-yl)carbamoyl)-4,5,6,7-tetrahydropyrazolo[1,5-a]pyridin-4-yl)piperidine-4-carboxylic acid]", "pIC50": "> 8.00"},
      {"smiles": "Cc1c(NC(=O)c2cc3n(n2)CCCC3NC(C)(C)C(=O)O)cccc1-c1cccc(Nc2nc(C(F)F)nc3cc(CN4CC[C@@H](O)C4)cnc23)c1C", "note": "(stereo partly drawn) [Compound 137, 2-((2-((3'-((2-(difluoromethyl)-7-(((R)-3-hydroxypyrrolidin-1-yl)methyl)pyrido[3,2-d]pyrimidin-4-yl)amino)-2,2'-dimethyl-[1,1'-biphenyl]-3-yl)carbamoyl)-4,5,6,7-tetrahydropyrazolo[1,5-a]pyridin-4-yl)amino)-2-methylpropanoic acid]", "pIC50": "> 8.00"},
      {"smiles": "O=C(Nc1cccc(-c2cccc(Nc3nc(C(F)F)nc4cc(CN5CC[C@@H](O)C5)cnc34)c2Cl)c1Cl)c1cc2n(n1)CCCC2O", "note": "(stereo partly drawn) [Compound 138, N-(2,2'-dichloro-3'-((2-(difluoromethyl)-7-(((R)-3-hydroxypyrrolidin-1-yl)methyl)pyrido[3,2-d]pyrimidin-4-yl)amino)-[1,1'-biphenyl]-3-yl)-4-hydroxy-4,5,6,7-tetrahydropyrazolo[1,5-a]pyridine-2-carboxamide]", "pIC50": "7.00 to 8.00"},
      {"smiles": "CC(=O)NCCNC1CCCn2nc(C(=O)Nc3cccc(-c4cccc(Nc5nc(C(F)F)nc6cc(CN7CC[C@@H](O)C7)cnc56)c4Cl)c3Cl)cc21", "note": "(stereo partly drawn) [Compound 139, 4-((2-acetamidoethyl)amino)-N-(2,2'-dichloro-3'-((2-(difluoromethyl)-7-(((R)-3-hydroxypyrrolidin-1-yl)methyl)pyrido[3,2-d]pyrimidin-4-yl)amino)-[1,1'-biphenyl]-3-yl)-4,5,6,7-tetrahydropyrazolo[1,5-a]pyridine-2-carboxamide]", "pIC50": "7.00 to 8.00"},
      {"smiles": "O=C(Nc1cccc(-c2cccc(Nc3nc(C(F)F)nc4cc(CN5CC[C@@H](O)C5)cnc34)c2Cl)c1Cl)c1cc2n(n1)CCCC2N1CC[C@@H](O)C1", "note": "(stereo partly drawn) [Compound 140, N-(2,2'-dichloro-3'-((2-(difluoromethyl)-7-(((R)-3-hydroxypyrrolidin-1-yl)methyl)pyrido[3,2-d]pyrimidin-4-yl)amino)-[1,1'-biphenyl]-3-yl)-4-((R)-3-hydroxypyrrolidin-1-yl)-4,5,6,7-tetrahydropyrazolo[1,5-a]pyridine-2-carboxamide]", "pIC50": "7.00 to 8.00"},
      {"smiles": "O=C(Nc1cccc(-c2cccc(Nc3nc(C(F)F)nc4cc(CN5CC[C@@H](O)C5)cnc34)c2Cl)c1Cl)c1cc2n(n1)CCCC2NCCO", "note": "(stereo partly drawn) [Compound 141, N-(2,2'-dichloro-3'-((2-(difluoromethyl)-7-(((R)-3-hydroxypyrrolidin-1-yl)methyl)pyrido[3,2-d]pyrimidin-4-yl)amino)-[1,1'-biphenyl]-3-yl)-4-((2-hydroxyethyl)amino)-4,5,6,7-tetrahydropyrazolo[1,5-a]pyridine-2-carboxamide]", "pIC50": "7.00 to 8.00"},
      {"smiles": "O=C(Nc1cccc(-c2cccc(Nc3nc(C(F)F)nc4cc(CN5CC[C@@H](O)C5)cnc34)c2Cl)c1Cl)c1cc2n(n1)CCCC2N1CC[C@@H](C(=O)O)C1", "note": "(stereo partly drawn) [Compound 142, (3R)-1-(2-((2,2'-dichloro-3'-((2-(difluoromethyl)-7-(((R)-3-hydroxypyrrolidin-1-yl)methyl)pyrido[3,2-d]pyrimidin-4-yl)amino)-[1,1'-biphenyl]-3-yl)carbamoyl)-4,5,6,7-tetrahydropyrazolo[1,5-a]pyridin-4-yl)pyrrolidine-3-carboxylic acid]", "pIC50": "> 8.00"},
      {"smiles": "O=C(O)CNC1CCCn2nc(C(=O)Nc3cccc(-c4cccc(Nc5nc(C(F)F)nc6cc(CN7CC[C@@H](O)C7)cnc56)c4Cl)c3Cl)cc21", "note": "(stereo partly drawn) [Compound 143, 2-((2-((2,2'-dichloro-3'-((2-(difluoromethyl)-7-(((R)-3-hydroxypyrrolidin-1-yl)methyl)pyrido[3,2-d]pyrimidin-4-yl)amino)-[1,1'-biphenyl]-3-yl)carbamoyl)-4,5,6,7-tetrahydropyrazolo[1,5-a]pyridin-4-yl)amino)acetic acid]", "pIC50": "> 8.00"},
      {"smiles": "O=C(Nc1cccc(-c2cccc(Nc3nc(C(F)F)nc4cc(CN5CC[C@@H](O)C5)cnc34)c2Cl)c1Cl)c1cc2n(n1)CCCC2N1CCC(O)CC1", "note": "(stereo partly drawn) [Compound 144, N-(2,2'-dichloro-3'-((2-(difluoromethyl)-7-(((R)-3-hydroxypyrrolidin-1-yl)methyl)pyrido[3,2-d]pyrimidin-4-yl)amino)-[1,1'-biphenyl]-3-yl)-4-(4-hydroxypiperidin-1-yl)-4,5,6,7-tetrahydropyrazolo[1,5-a]pyridine-2-carboxamide]", "pIC50": "7.00 to 8.00"},
      {"smiles": "O=C(Nc1cccc(-c2cccc(Nc3nc(C(F)F)nc4cc(CN5CC[C@@H](O)C5)cnc34)c2Cl)c1Cl)c1cc2n(n1)CCCC2N1CCC(C(=O)O)CC1", "note": "(stereo partly drawn) [Compound 145, 1-(2-((2,2'-dichloro-3'-((2-(difluoromethyl)-7-({(R)-3-hydroxypyrrolidin-1-yl)methyl)pyrido[3,2-d]pyrimidin-4-yl)amino)-[1,1'-biphenyl]-3-yl)carbamoyl)-4,5,6,7-tetrahydropyrazolo[1,5-a]pyridin-4-yl)piperidine-4-carboxylic acid]", "pIC50": "> 8.00"},
      {"smiles": "CC(C)(NC1CCCn2nc(C(=O)Nc3cccc(-c4cccc(Nc5nc(C(F)F)nc6cc(CN7CC[C@@H](O)C7)cnc56)c4Cl)c3Cl)cc21)C(=O)O", "note": "(stereo partly drawn) [Compound 146, 2-((2-((2,2'-dichloro-3'-((2-(difluoromethyl)-7-(((R)-3-hydroxypyrrolidin-1-yl)methyl)pyrido[3,2-d]pyrimidin-4-yl)amino)-[1,1'-biphenyl]-3-yl)carbamoyl)-4,5,6,7-tetrahydropyrazolo[1,5-a]pyridin-4-yl)amino)-2-methylpropanoic acid]", "pIC50": "> 8.00"},
      {"smiles": "Cc1c(NC(=O)c2cc3n(n2)CCCC3NCCO)cccc1-c1cccc(NC(=O)c2nc3c(s2)CN(C)CC3)c1C", "note": "(stereo not shown) [Compound 147, N-(3'-(4-((2-hydroxyethyl)amino)-4,5,6,7-tetrahydropyrazolo[1,5-a]pyridine-2-carboxamido)-2,2'-dimethyl-[1,1'-biphenyl]-3-yl)-5-methyl-4,5,6,7-tetrahydrothiazolo[5,4-c]pyridine-2-carboxamide]", "pIC50": "> 8.00"},
      {"smiles": "CC(=O)NCCNC1CCCn2nc(C(=O)Nc3cccc(-c4cccc(NC(=O)c5nc6c(s5)CN(C)CC6)c4C)c3C)cc21", "note": "(stereo not shown) [Compound 148, N-(3'-(4-((2-acetamidoethyl)amino)-4,5,6,7-tetrahydropyrazolo[1,5-a]pyridine-2-carboxamido)-2,2'-dimethyl-[1,1'-biphenyl]-3-yl)-5-methyl-4,5,6,7-tetrahydrothiazolo[5,4-c]pyridine-2-carboxamide]", "pIC50": "> 8.00"}
    ]}
  ]
}
